From patent US12161136B2, “Screening methods using GPRC6A taste receptors and pet food products and compositions prepared using the same” (MARS, INCORPORATED, priority 2018, dated 2024)

What was measured:
[1] = tested on: feline GPRC6A; assay: fGPRC6A calcium assay in HEK-293 T-REx/natClytin cells (FLIPR Tetra, Fluo-4 AM fluorescence); type: cell-based; conditions: for Activation of the fGPRC6A receptor (intracellular calcium response): ligand alone, K2.3 clone, doxycycline-induced, Fluo-4 AM read-out
Method: The HEK-293 […] cell line was stably transfected by electroporation. Briefly, 3×10^6 cells detached from 60% confluent flasks were transfected with 10 μg of DNA construct by using the Gene Pulser II electroporator (Biorad) (parameters: 300 Volts, 950 μF). […] Tetra system was used to measure fluorescence or luminescence. HEK293 cells that transiently or stably expressed the […] taste receptor, were exposed to compounds to determine whether the compounds modulated the activity of the […] receptor. In particular, […] cell line was used as recipient cell line and stable transfections were carried out using an inducible expression construct encoding for the feline GPRC6A in combination with the chimeric Ga protein Gaq[…]. Stable pools underwent a first limiting dilution (LD) and the best clones were chosen after stimulation with the reference ligand L-Arg+20 mM Mg^2+, using both a fluorescent and a luminescent read-out. Four selected first LD clones were subjected to a second round of LD; CPA was then performed in order to choose the best performing clones. On the basis of the functional data obtained at FLIPR® Tetra, the final K2.3 clone was chosen for the subsequent optimization steps. Fluorescence (Fluo-4 AM dye) was chosen as best read-out given its higher sensitivity in comparison to luminescence. In particular, cells were seeded at 7,500 cells/well and tested 48 h after seeding (Doxycycline was added at 1 μg/mL 24 h after seeding). Then, medium was removed, and cells were incubated with Fluo-4 AM dye (20 μL/well) for 1 h at 37° C. […]

[2] = tested on: cats; assay: Cat feeding test (2-bottle choice test); type: in vivo; conditions: 0.15 mM L-ornithine hydrochloride in water vs plain water; 24 cats; 36 hours testing time
Method: Cats were allowed access to water containing 0.15 mM L-ornithine hydrochloride and to plain water. The methodology used a 2-bottle choice test with 24 cats (the final number of cats for each test can vary due to data being discarded by spillage, etc.). Cats were housed individually during trial periods and had free access to water available between testing periods. The test involved a choice test between the tastant/mixture at a given concentration dissolved in deionized water versus deionized water only or another tastant/mixture. Control was made for positional bias (e.g., A/B exposure 1 and B/A exposure 2) and evaporation loss. The testing time was 36 hours (i.e., 18 hours per day, allowing a two-day crossover). Following two consecutive days of each testing, cats had two consecutive days of rest. Cats were offered a dry diet as a single meal at the start of the test period for one hour, calculated to meet the individual requirements for each cat.

Structure (SMILES) | Modulation of the response to the tested L-alpha-amino acids ([1]; 20 mM Mg2+ together with L-Arginine, L-Ornithine or L-Lysine) | Activation of the fGPRC6A receptor (intracellular calcium response) [1] | Average difference in intake versus plain water [2] [g]
[Mg+2] [magnesium ion] | positive allosteric modulator | not activated | –
COc1cccc([C@@H](C)NCCCc2ccccc2Cl)c1 [NPS R-568] | – | not functional | –
Cl.NCCC[C@H](N)C(=O)O [L-ornithine, L-ornithine hydrochloride] | – | – | 15.28
